# Results reported in publication PMC6766871 (International Journal of Cancer, 2019).
# pIC50, pKd: −log10 of the molar value. Where two headings read alike, the source gives them in different places.
# Assays:
# [1] = tested on: FGFR1-amplified squamous NSCLC; conditions: initial clinical results; cited from earlier work
# CSF1R [2] = molecular target: T1, CSF1R (Homo sapiens, UniProt P07333); assay: KINOMEscan competition binding; conditions: 100 nM rogaratinib
# FGFR2 [3] = molecular target: T2, FGFR2 (Homo sapiens, UniProt P21802); assay: KINOMEscan competition binding
# VEGFR1 = VEGFR1 (Homo sapiens, UniProt P17948); assay: KINOMEscan competition binding
# VEGFR3 [4] = molecular target: T3, VEGFR3 (Homo sapiens, UniProt P35916); assay: KINOMEscan competition binding
# 468 kinase targets = assay: KINOMEscan profiling, kinase panel; type: binding; conditions: of 403 non-mutant kinases
# FGFR2 [5] = molecular target: T2, FGFR2; assay: radiometric kinase activity assay; type: biochemical
# CSF1R [6] = molecular target: T1, CSF1R; assay: kinase inhibition assay; type: biochemical
# TIE2 = TIE2 (Homo sapiens, UniProt Q02763); assay: kinase inhibition assay; type: biochemical
# VEGFR3 [7] = molecular target: T3, VEGFR3; assay: kinase inhibition assay; type: biochemical
# 77 non-kinase targets = assay: PanLabs Safety screen, whole panel; conditions: 10 µM
# FGF2-stimulated HUVEC = assay: HUVEC growth assay, FGF2-stimulated; type: cell-based; conditions: Homo sapiens, 72 h, read-out: IC50 inhibition of FGF2-stimulated growth
# VEGF-A-stimulated HUVEC = assay: HUVEC growth assay, VEGF-A-stimulated; type: cell-based, human
# [8] = tested on: pERK1/2 (T202/Y204,T185/Y187) in DMS-114 cells; assay: FGF2-induced ERK1/2 phosphorylation, MSD-ELISA; type: cell-based; conditions: Homo sapiens, DMS-114, read-out: IC50 pERK1/2 (T202/Y204,T185/Y187)
# [9] = tested on: pERK1/2 (T202/Y204,T185/Y187) in MFM-223 cells; assay: FGF2-induced ERK1/2 phosphorylation, MSD-ELISA; type: cell-based; conditions: Homo sapiens, MFM-223, read-out: IC50 pERK1/2 (T202/Y204,T185/Y187)
# [10] = tested on: pERK1/2 (T202/Y204,T185/Y187) in C51 cells; assay: ERK1/2 phosphorylation, MSD-ELISA; type: cell-based; conditions: Mus musculus, read-out: IC50 pERK1/2 (T202/Y204,T185/Y187)
# [11] = tested on: p-FGFR4 in MDA-MB-453 cells; assay: Western blot, FGFR4 auto-phosphorylation; type: cell-based, human; conditions: MDA-MB-453, 0–1,000 nM, 2 h
# [12] = tested on: p-ERK1/2 in MDA-MB-453 cells; assay: Western blot, ERK1/2 phosphorylation; type: cell-based, human; conditions: MDA-MB-453, 0–1,000 nM, 2 h
# [13] = tested on: p-FGFR2 in NCI-H716 cells; assay: Western blot, FGFR2 auto-phosphorylation; type: cell-based, human; conditions: NCI-H716, 100 nM
# [14] = tested on: p-ERK1/2 in NCI-H716 cells; assay: Western blot, ERK1/2 phosphorylation; type: cell-based, human; conditions: NCI-H716, 100 nM
# p-ERK1/2 in RT-112 cells = assay: Western blot, ERK1/2 phosphorylation; type: cell-based, human; conditions: RT-112, 0–10,000 nM
# [15] = tested on: p-ERK1/2 in NCI-H1581 cells; assay: Western blot, ERK1/2 phosphorylation; type: cell-based, human; conditions: NCI-H1581, 0–10,000 nM
# [16] = tested on: p-ERK1/2 in UM-UC-3 cells; assay: Western blot, ERK1/2 phosphorylation; type: cell-based, human; conditions: UM-UC-3, 0–10,000 nM
# [17] = tested on: p-ERK1/2 in NCI-H520 cells; assay: Western blot, ERK1/2 phosphorylation; type: cell-based, human; conditions: NCI-H520, 0–10,000 nM
# [18] = tested on: p-FGFR2 and p-ERK1/2 in NCI-H716 tumors; assay: PK/PD, phosphorylation of FGFR2 and ERK1/2 in NCI-H716 tumor tissue; type: in vivo, mouse
# [19] = maximally tolerated dose in Balb/cJ mice; type: in vivo, mouse
# [20] = body weight monitoring in tumor-bearing mice; type: in vivo, mouse
# [21] = body weight monitoring in tumor-bearing rats; type: in vivo, rat; conditions: C51 model, nude rats, monotherapy
# C51 colon tumors [22] = assay: antitumor efficacy, C51 colon cancer model in nude rats
# [23] = plasma pharmacokinetics in NCI-H716 tumor-bearing NMRI nu/nu mice
# C51 colon tumors [24] = assay: antitumor efficacy, syngeneic C51 colon cancer model in BALB/cJ mice; conditions: for partial response (PR) rate (RECIST): 2/9 mice
# [25] = tested on: NCI-H716 human colon cancer xenograft; assay: antitumor efficacy, NCI-H716 colorectal xenograft in NMRI nu/nu mice; conditions: 50 mg/kg BID; 1/8 mice
# [26] = tested on: DMS-114 human SCLC xenograft; assay: antitumor efficacy, DMS-114 lung cancer xenograft in NMRI nu/nu mice; conditions: for T/C volume: rogaratinib 50 mg/kg BID p.o., docetaxel 30 mg/kg Q7D i.v., carboplatin 80 mg/kg Q7D / paclitaxel 24 mg/kg Q7D i.p., 10 days
# [27] = tested on: LU299 human lung cancer PDX; assay: antitumor efficacy, patient-derived LU299 lung cancer xenograft in nu/nu mice; conditions: 33 days
# LXFL1121 human NSCLC PDX = assay: antitumor efficacy, patient-derived LXFL1121 NSCLC xenograft in NMRI nu/nu mice
# T2 sequence (P21802 481-770 limits assumed): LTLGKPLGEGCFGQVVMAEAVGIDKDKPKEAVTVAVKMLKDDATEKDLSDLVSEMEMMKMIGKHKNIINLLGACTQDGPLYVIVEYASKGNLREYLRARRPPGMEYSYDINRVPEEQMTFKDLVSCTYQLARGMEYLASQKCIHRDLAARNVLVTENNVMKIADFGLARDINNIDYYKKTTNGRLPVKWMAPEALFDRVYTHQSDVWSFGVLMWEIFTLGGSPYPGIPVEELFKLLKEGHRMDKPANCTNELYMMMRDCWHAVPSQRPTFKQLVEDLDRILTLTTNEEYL
# T1 sequence (P07333 20-972): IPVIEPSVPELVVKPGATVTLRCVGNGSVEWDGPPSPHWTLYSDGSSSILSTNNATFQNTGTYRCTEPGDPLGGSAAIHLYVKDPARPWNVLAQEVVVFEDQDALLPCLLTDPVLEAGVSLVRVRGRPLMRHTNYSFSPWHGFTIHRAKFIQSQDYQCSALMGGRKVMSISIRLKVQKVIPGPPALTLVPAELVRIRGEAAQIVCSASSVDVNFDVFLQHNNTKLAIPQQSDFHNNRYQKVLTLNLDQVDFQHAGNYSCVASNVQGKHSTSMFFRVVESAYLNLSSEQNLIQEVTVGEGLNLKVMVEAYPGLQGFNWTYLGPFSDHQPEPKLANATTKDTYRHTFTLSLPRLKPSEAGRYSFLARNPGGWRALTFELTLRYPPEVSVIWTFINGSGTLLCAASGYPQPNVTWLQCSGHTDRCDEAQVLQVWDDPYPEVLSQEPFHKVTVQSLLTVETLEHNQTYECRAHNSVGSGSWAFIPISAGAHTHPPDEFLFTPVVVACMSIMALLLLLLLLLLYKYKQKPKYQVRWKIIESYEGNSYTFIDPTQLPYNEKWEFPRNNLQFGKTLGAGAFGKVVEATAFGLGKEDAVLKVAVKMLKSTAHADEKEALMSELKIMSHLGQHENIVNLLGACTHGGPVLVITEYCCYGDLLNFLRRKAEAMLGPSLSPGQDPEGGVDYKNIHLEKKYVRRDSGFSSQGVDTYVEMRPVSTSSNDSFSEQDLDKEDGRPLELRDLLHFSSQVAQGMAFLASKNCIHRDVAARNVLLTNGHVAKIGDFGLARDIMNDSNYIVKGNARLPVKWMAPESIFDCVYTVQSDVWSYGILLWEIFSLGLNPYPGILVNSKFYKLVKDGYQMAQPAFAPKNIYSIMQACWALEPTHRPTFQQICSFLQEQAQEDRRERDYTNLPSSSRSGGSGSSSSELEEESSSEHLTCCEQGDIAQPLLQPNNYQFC
# Sequence of VEGFR1 (P17948 27-1338): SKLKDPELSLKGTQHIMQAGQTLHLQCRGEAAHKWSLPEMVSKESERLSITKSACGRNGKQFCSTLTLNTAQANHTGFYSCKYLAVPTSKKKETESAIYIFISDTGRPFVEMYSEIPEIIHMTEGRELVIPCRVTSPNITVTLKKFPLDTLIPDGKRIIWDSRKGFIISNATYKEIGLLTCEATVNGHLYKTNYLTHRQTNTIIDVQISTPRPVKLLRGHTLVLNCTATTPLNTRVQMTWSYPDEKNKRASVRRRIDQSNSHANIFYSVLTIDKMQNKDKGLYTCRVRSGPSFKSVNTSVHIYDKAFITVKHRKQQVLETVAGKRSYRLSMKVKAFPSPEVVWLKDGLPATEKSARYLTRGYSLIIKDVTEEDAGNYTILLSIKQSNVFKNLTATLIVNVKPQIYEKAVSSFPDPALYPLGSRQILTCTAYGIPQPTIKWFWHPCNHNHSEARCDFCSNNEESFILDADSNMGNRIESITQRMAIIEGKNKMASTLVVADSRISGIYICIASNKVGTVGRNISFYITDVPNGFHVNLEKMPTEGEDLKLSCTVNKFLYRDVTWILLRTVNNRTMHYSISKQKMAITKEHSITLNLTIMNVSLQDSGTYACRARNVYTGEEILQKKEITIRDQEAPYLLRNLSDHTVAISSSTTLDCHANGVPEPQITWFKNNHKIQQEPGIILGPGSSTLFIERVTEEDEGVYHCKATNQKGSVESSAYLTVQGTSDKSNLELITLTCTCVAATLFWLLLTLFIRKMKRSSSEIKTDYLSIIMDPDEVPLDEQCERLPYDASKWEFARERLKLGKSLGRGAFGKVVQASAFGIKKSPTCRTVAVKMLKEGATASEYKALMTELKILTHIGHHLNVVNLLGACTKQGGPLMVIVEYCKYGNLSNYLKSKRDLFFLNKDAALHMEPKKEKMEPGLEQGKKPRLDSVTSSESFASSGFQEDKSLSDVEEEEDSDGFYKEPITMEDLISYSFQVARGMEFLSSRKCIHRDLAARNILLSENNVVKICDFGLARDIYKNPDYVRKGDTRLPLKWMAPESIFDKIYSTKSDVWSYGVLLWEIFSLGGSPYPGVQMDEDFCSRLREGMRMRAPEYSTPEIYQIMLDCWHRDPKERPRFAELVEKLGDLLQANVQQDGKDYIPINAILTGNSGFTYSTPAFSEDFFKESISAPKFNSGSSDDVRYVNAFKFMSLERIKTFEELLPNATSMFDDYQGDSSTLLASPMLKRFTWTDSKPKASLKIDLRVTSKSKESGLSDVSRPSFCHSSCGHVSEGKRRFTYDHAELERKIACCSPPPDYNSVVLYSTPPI
# T3 sequence (P35916 25-1363): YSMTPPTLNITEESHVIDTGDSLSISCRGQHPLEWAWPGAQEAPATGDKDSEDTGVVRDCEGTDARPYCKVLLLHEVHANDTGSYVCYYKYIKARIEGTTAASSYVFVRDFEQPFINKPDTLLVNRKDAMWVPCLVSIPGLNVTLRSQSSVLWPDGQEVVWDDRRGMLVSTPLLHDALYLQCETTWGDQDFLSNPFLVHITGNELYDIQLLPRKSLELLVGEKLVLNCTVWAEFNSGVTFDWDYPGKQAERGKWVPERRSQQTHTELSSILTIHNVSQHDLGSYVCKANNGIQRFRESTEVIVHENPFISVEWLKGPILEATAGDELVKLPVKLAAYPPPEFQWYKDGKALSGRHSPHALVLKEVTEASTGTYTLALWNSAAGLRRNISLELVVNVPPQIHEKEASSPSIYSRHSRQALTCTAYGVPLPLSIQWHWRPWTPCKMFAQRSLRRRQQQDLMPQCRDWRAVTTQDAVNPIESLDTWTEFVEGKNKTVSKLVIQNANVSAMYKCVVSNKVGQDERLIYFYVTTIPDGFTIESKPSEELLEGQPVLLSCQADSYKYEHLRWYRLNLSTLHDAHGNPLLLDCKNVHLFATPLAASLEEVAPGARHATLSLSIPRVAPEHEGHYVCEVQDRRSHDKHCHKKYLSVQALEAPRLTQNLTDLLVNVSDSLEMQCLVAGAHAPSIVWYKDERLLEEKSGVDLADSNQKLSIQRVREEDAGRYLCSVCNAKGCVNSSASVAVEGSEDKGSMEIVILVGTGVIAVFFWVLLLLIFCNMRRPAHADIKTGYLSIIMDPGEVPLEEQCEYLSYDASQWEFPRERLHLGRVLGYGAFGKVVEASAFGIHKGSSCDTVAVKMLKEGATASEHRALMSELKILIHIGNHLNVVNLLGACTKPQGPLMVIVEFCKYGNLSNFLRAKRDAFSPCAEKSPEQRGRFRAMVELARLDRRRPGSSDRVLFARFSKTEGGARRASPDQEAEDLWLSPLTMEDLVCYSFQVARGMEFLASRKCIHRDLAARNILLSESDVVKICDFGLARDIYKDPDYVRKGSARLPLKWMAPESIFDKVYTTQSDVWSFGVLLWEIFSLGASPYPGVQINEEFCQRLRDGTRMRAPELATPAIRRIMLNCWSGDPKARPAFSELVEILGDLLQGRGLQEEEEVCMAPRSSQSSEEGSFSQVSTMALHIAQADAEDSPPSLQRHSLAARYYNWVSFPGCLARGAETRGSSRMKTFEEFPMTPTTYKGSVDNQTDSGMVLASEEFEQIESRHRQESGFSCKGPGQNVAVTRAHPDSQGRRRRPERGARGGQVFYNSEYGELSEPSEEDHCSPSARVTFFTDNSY
# Sequence of TIE2 (Q02763 23-1124): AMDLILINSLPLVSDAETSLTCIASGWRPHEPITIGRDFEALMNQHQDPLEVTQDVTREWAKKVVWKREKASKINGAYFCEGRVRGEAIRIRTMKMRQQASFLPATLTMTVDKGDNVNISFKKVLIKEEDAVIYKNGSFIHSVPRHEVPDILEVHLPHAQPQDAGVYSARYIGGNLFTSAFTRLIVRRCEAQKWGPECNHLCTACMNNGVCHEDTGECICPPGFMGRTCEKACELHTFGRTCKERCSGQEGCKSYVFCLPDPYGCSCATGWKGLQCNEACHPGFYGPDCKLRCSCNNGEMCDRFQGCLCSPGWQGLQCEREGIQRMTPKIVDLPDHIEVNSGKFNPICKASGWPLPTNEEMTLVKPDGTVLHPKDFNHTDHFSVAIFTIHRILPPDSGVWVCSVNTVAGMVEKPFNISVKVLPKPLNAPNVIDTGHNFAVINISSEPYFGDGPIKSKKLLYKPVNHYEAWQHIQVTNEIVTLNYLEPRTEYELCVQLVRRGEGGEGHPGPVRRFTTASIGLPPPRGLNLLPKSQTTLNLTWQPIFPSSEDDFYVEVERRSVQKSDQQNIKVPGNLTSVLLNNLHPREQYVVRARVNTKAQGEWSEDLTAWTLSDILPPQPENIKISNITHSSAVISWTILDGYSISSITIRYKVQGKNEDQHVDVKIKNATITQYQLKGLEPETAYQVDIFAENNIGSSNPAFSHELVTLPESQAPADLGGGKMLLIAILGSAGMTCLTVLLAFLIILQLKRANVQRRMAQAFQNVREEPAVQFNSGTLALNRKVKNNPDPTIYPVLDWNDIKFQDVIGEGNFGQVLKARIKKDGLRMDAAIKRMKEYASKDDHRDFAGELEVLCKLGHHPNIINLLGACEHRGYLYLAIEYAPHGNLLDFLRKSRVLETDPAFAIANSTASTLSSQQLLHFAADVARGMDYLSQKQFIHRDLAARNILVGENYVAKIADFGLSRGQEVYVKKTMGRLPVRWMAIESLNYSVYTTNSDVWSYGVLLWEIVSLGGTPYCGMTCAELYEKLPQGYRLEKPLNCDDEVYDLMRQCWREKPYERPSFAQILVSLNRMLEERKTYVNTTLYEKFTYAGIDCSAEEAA
structure (smiles),measurement,setting,value
"CCN1CCN(c2ccc(Nc3cc(N(C)C(=O)Nc4c(Cl)c(OC)cc(OC)c4Cl)ncn3)cc2)CC1 [BGJ398, 3‐(2,6‐dichloro‐3,5‐dimethoxy‐phenyl)‐1‐{6‐[4‐(4‐ethyl‐piperazin‐1‐yl)‐phenylamino]‐pyrimidin‐4‐yl}‐1‐methyl‐urea]",response rate,[1],11%
"COCc1c(-c2cc3cc(C)cc(OC)c3s2)c2c(N)ncnn2c1CN1CCNC(=O)C1 [rogaratinib, 4‐{[4‐amino‐6‐(methoxymethyl)‐5‐(7‐methoxy‐5‐methyl‐1‐benzothiophen‐2‐yl)pyrrolo[2,1‐f][1,2,4]triazin‐7‐yl]methyl}piperazin‐2‐one]",inhibition of binding to CSF1R in KINOMEscan profiling,CSF1R [2],strong inhibition
same,pKd,FGFR2 [3],8.30
same,pKd,VEGFR1,6.72
same,binding affinity to VEGFRs lower compared to FGFR1,"VEGFR1; VEGFR1, VEGFR3 vs FGFR1 Kd",about 100 fold
same,pKd,VEGFR3 [4],6.82
same,number of additional kinases besides FGFR1-4 with competition binding >65%,468 kinase targets; 100 nM rogaratinib,4
same,number of additional kinases besides FGFR1-4 with competition binding >65%,468 kinase targets; 1 μM rogaratinib,18
same,pIC50,FGFR2 [5],> 9.00
same,pIC50,CSF1R [6],6.78
same,pIC50,TIE2,5.89
same,pIC50,VEGFR3 [7],6.89
same,number of significant hits in a set of 77 non-kinase targets,77 non-kinase targets,3
same,pIC50,FGF2-stimulated HUVEC,7.80
same,IC50 VEGF-A-stimulated growth higher than FGF2-stimulated growth,VEGF-A-stimulated HUVEC; HUVEC,28 fold
same,IC50,"VEGF-A-stimulated HUVEC; Homo sapiens, 72 h, read-out: −logIC50 inhibition of VEGF-A-stimulated growth (converted)",501 nM
same,pIC50,"VEGF-A-stimulated HUVEC; Homo sapiens, HUVEC, 72 h, read-out: IC50 inhibition of VEGF-A-stimulated growth",6.34
same,pIC50,[8],7.70
same,pIC50,[9],7.96
same,pIC50,[10],6.55
same,auto-phosphorylation of FGFR4,[11],inhibited auto‐phosphorylation of FGFR4
same,ERK1/2 phosphorylation,[12],preventing ERK1/2 phosphorylation in the same concentration range
same,auto-phosphorylation of FGFR2,[13],effectively inhibited
same,phosphorylation of ERK1/2,[14],effectively inhibited
same,inhibition of ERK1/2 phosphorylation,p-ERK1/2 in RT-112 cells,potent inhibition
same,inhibition of ERK1/2 phosphorylation,[15],potent inhibition
same,inhibition of ERK1/2 phosphorylation,[16],less sensitive
same,inhibition of ERK1/2 phosphorylation,[17],less sensitive
same,FGFR2 and ERK1/2 phosphorylation levels in tumor,"[18]; 24-h time point after single dose 35, 50 or 65 mg/kg",returned to levels similar to the vehicle control
same,FGFR2 and ERK1/2 phosphorylation levels in tumor,"[18]; for at least five hours after single dose 35, 50 or 65 mg/kg",strong inhibition of FGFR signaling
same,maximally tolerated dose,[19]; BID,50 mg/kg
same,maximally tolerated dose,[19]; QD,75 mg/kg
same,body weight losses,"[20]; C51 model, mice, monotherapy",≤ 10%
same,maximum body weight loss,[20]; DMS-114 model,5%
same,body weight losses,[20]; LU299 PDX model,≤ 10%
same,body weight losses,[20]; LXFL1121 PDX model,≤ 10%
same,maximum body weight loss,[20]; NCI-H716 model,5.2%
same,body weight losses,[21],≤ 10%
same,complete responses (CR) (RECIST),"C51 colon tumors [22]; 10 mg/kg QD, 2/8",25%
same,stable disease (SD) (RECIST),"C51 colon tumors [22]; 50 mg/kg QD, 1/8",12.5%
same,complete responses (CR) (RECIST),"C51 colon tumors [22]; 50 mg/kg QD, 3/8",37.5%
same,unbound Cmax concentration in plasma,[23]; single dose 35 mg/kg after 10-day drug-free period,123 nM
same,unbound Cmax concentration in plasma,[23]; single dose 50 mg/kg after 10-day drug-free period,294 nM
same,unbound Cmax concentration in plasma,[23]; single dose 65 mg/kg after 10-day drug-free period,357 nM
same,antitumor efficacy,"C51 colon tumors [24]; 25 mg/kg QD p.o., 13 days",not efficacious
same,partial response (PR) rate (RECIST),C51 colon tumors [24]; 50 mg/kg QD,22%
same,stable disease (SD) rate (RECIST),"C51 colon tumors [24]; 75 mg/kg QD, 1/9 mice",11%
same,partial response (PR) rate (RECIST),C51 colon tumors [24]; 75 mg/kg QD,22%
same,partial responses (PR),[25],12.5%
same,T/C volume,[26],0.34
same,T/C volume,[27]; 50 mg/kg BID p.o.,0.33
same,T/C volume,"LXFL1121 human NSCLC PDX; 50 mg/kg BID p.o., 22 days",0.26
"CC(=O)O[C@@]12CO[C@@H]1C[C@H](O)[C@@]1(C)C(=O)[C@H](O)C3=C(C)[C@@H](OC(=O)[C@H](O)[C@@H](NC(=O)OC(C)(C)C)c4ccccc4)C[C@@](O)([C@@H](OC(=O)c4ccccc4)[C@H]21)C3(C)C [docetaxel, reference compound]",maximum body weight loss,[20]; DMS-114 model,2.4%
same,maximum body weight losses,[20]; LU299 model,14.1%
same,T/C volume,[26],0.27
same,PR rate,"[26]; rogaratinib 50 mg/kg BID, docetaxel 30 mg/kg Q7D, carboplatin 80 mg/kg Q7D / paclitaxel 24 mg/kg Q7D",40%
same,PRs (RECIST),"[27]; rogaratinib 50 mg/kg BID, docetaxel Q7D i.v., n=10",60%
same,tumor response post-treatment,LXFL1121 human NSCLC PDX; drug-free observation period after treatment,tumor regrowth was observed
